A short description of data set [1]: Cell cycle arrest in human TOSA4 cells assessed as accumulation at G2 phase at 100 uM after 24 hrs by FACS analysis. It is filed as functional, cell-based.
In data set [2] the test system is U2OS. As to the kind of experiment: Cell cycle arrest in human U2OS cells assessed as accumulation at G2 phase at 100 uM after 24 hrs by FACS analysis. It is filed as functional, cell-based. (Flow cytometry measures light scatter and fluorescence of single cells or particles in a stream.)
A short description of data set [3]: Cell cycle arrest in human TOSA4 cells assessed as accumulation at G2 phase at 50 uM after 24 hrs by FACS analysis. It is filed as functional, cell-based.
Data set [4] is filed under the species Xenopus laevis. Briefly: Inhibition of ataxia telangiectasia mutated-dependent Nbs1 phosphorylation in Xenopus laevis extract assessed as electrophoretic mobility by Western blot analysis. On the technique in general: In western blotting, separated proteins are transferred to a membrane and probed.
Data set [5] concerns TOSA4. Briefly: Inhibition of gene conversion in human TOSA4 cells transfected with I-Sec1 expressing plasmid assessed as decrease in GFP-positive cells at 25 uM after 24 hrs by gene conversion assay. It is filed as functional, cell-based.
For data set [6], the system named is HEK293. Briefly: Cytotoxicity against human HEK293 cells at 25 uM after 24 hrs. It is filed as cell-based. As to conditions: hek293, 24 h.
The species named for data set [7] is Xenopus laevis. As to the kind of experiment: Inhibition of DNA double strand break-induced Mre11/Rad50/Nbs1-dependent ATM autophosphorylation at Ser1981.
Data set [8] is filed under the species Homo sapiens. As to the kind of experiment: Inhibition of human Mre11/Rad50/Nbs1-dependent DNA tethering assessed as Rad50-associated adenylate kinase activity at 0.05 to 0.8 mM.
Data set [9] has as its system Nucleic Acid. Briefly: Inhibition of DNA tethering in Xenopus laevis extract at 10 uM. It is filed as nucleic-acid assay.
Data set [10] is filed under the species Xenopus laevis. As to the kind of experiment: Stimulation of Mre11/Rad50/Nbs1-dependent DNA tethering in Xenopus laevis extract at 100 uM.
Data set [11] concerns U2OS. Briefly: Inhibition of 10 Gy irradiation-induced G2/M check point in human U2OS cells using G2 synchronized cells at 25 uM after 24 hrs by FACS analysis. It is filed as functional, cell-based.
The species named for data set [12] is Xenopus laevis. Briefly: Inhibition of Mer11 binding to streptavidin-bound biotinylated DNA in Xenopus laevis extract up to 1 mM.
The target in data set [13] is T1, Double-strand break repair protein MRE11 (Homo sapiens) (UniProt P49959).
T1 sequence (whole entry): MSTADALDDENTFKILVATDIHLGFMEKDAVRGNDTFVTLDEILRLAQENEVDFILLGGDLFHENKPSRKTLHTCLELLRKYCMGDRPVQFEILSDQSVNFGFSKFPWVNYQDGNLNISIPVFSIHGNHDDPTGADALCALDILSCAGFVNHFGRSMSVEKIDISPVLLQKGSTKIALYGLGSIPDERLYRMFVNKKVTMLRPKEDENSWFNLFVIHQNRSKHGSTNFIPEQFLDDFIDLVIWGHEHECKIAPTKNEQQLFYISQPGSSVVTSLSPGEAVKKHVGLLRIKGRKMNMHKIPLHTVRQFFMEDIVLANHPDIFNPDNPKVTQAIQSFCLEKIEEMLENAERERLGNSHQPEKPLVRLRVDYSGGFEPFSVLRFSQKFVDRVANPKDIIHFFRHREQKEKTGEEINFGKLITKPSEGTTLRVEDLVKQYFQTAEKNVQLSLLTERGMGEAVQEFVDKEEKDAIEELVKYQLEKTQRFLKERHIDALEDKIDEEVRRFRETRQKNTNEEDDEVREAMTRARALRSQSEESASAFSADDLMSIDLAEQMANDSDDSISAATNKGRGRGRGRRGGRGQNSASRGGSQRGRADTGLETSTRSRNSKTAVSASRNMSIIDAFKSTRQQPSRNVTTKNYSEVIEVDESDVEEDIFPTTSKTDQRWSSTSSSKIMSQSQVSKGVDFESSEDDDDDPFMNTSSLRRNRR
Briefly: Inhibition of human Mre11 ExoIII nuclease activity at 100 uM.

Data set [14] has as its system HEK293. Briefly: Cytotoxicity against human HEK293 cells at 50 uM after 24 hrs. The format is cell-based. As to conditions: hek293, 24 h.
The species named for data set [15] is Xenopus laevis. As to the kind of experiment: Inhibition of ataxia telangiectasia mutated-dependent Chk2 phosphorylation in Xenopus laevis extract assessed as electrophoretic mobility by Western blot analysis.
The species entered for data set [16] is Xenopus laevis. Briefly: Inhibition of ataxia telangiectasia mutated binding to streptavidin-bound biotinylated DNA in Xenopus laevis extract up to 1 mM.
The target in data set [17] is T1, Double-strand break repair protein MRE11 (Homo sapiens). Briefly: Inhibition of human Mre11 nuclease activity at 100 uM.
The species entered for data set [18] is Xenopus laevis. As to the kind of experiment: Inhibition of monomeric ataxia telangiectasia mutated catalytic activity at 50 uM.
The nature of data set [19]: Inhibition of dimeric recombinant ataxia telangiectasia mutated activation in Xenopus laevis extract in presence of DNA, Mre11/Rad50/Nbs1.
The species named for data set [20] is Xenopus laevis. As to the kind of experiment: Induction of FLAG-tagged Mre11/Rad50/Nbs1 dissociation in Xenopus laevis extract at 100 uM.
Data set [21] is described as follows: (§1) Inhibition of DNA double strand break-induced ataxia telangiectasia mutated activation in Xenopus laevis extract assessed as inhibition of H2AX phosphorylation.
The species entered for data set [22] is Xenopus laevis. The description is as §1.

Calls of active or inactive are those of the source. No cut-off for these calls is given here.

One may read the IC50 as the midpoint of a concentration-inhibition curve. Take `N=C1NC(=O)/C(=C/c2ccc(O)cc2)S1` [MIRIN]: the result in data set [1], in data set [2], in [3] and in [10] was Active. The inhibition entry in data set [4], in data set [5], in data set [7], in [11], in [15] and in data set [17] was “Active” each time. Also, the Activity result in [6] and in data set [14] was “Non-toxic” throughout. Further, the outcome in data set [8] and in data set [20] was inactive. Besides, the inhibition entry in data set [9], in data set [12], in [13], in data set [16] and in [18] was “inactive” each time. The results for the IC50 in [19] and in [21] were 12 µM and 66 µM, respectively.
Take `O=c1cc(-c2ccccc2)[nH]c(=S)[nH]1`: the inhibition entry in data set [22] was “inactive”.
